Laboratory results: patent publication US9629883B2, “Anticaries compositions and probiotics/prebiotics” (CENTRO SUPERIOR DE INVESTIGACIÓN EN SALUD PÚBLICA (CSISP), priority 2010, dated 2017)
Bridges are numbered along the chain shown (N, C = ends). Where no end group is shown, it is not given here.

Key:
[1] = tested on: S. mutans; assay: Growth curves (optical density) of S. mutans in liquid BHI culture; assay type: cell-based, Streptococcus mutans
Method: Subsequently, 50-, 100- and 150-μl volumes of these two fractions, 3-10 kD and 0-3 kD, respectively, were added to a liquid culture of S. mutans and to a liquid culture of S. sobrinus, and the optical density was measured in a 48-well Fluostar luminometer every half-hour, with each treatment in triplicate, for 12-19 hours. […]
In order to corroborate that the peptides identified are those responsible for the inhibitory activity against cariogenic bacteria, the S12E (bacteriocins of bacterial origin) and T5A (peptide of human origin with a structure similar to that of defensins) peptides were chemically synthesised, obtaining approximately 4 mg of each of said peptides with a purity greater than 80%. They were totally re-suspended in 0.1% trichloroacetic acid (TCA) and the experiments designed to test the inhibition of liquid cultures of S. mutans by said chemically-synthesised compounds were performed. […]

[2] = tested on: S. sobrinus; assay: Growth curves (optical density) of S. sobrinus in liquid BHI culture; assay type: cell-based, Streptococcus sobrinus; conditions: chemically synthesised peptide, purity greater than 95%, re-suspended in ultrapure water, FIG. 6B
Method: Subsequently, […], respectively, were added to a liquid culture of S. mutans and to a liquid culture of S. sobrinus, and the optical density was measured in a 48-well Fluostar luminometer every half-hour, with each treatment in triplicate, for 12-19 hours.

Row | Substance | inhibitory activity against cultures of S. mutans ([1]; chemically synthesised peptide, purity greater than 80%, re-suspended in 0.1% TCA, FIG. 5) | inhibitory effect on S. mutans ([1]; chemically synthesised peptide, purity greater than 95%, re-suspended in ultrapure water, FIG. 6A) | inhibitory effect on S. sobrinus [2] | inhibitory effect on liquid cultures of S. mutans ([1]; chemically synthesised peptide, first synthesis without disulfide bridge) | inhibition of the growth of S. mutans at maximum peptide concentration ([1]; synthesised peptide with disulfide bridge between cysteines 3 and 12, 80 μg) | inhibition of the growth of S. mutans ([1]; synthesised peptide with disulfide bridge between cysteines 3 and 12, different concentrations, FIG. 7)
1 | S12E peptide: chemically synthesised bacteriocin-type anti-microbial peptide of bacterial origin, 39 amino acids, from S12E fosmid (MPFEAVGEARLAARTSRPGDRGPGNRAEESPDSAEQGGG; Streptococcus species) | inhibitory activity against cultures of S. mutans was confirmed | dose-dependent inhibitory effect | dose-dependent inhibitory effect | – | – | –
2 | T5A peptide: chemically synthesised defensin-type peptide of human origin, 26 amino acids; active form has disulfide bridge between cysteines 3 and 12 (MSCKKESLGSKCNYILLWYQPTESPH; disulfide 3-12; listed as Homo sapiens) | – | – | – | no inhibitory effect | total inhibition of the growth | capable of inhibiting the growth
